Measurements reported in patent publication US11186544B2 (BRISTOL-MYERS SQUIBB COMPANY, priority 2017, dated 2021).
pEC50: −log10 of the molar value. Read-outs that look alike come from different tables or passages of the source.

What was measured:
human FPR1 = human FPR1 (Homo sapiens (Human), UniProt P21462); assay: FPR1 cyclic adenosine monophosphate (cAMP) assay; format: cell-based; settings: CHO cells overexpressing human FPR1; inhibition of forskolin (10 μM) stimulated cAMP; read-out: hFPR1 cAMP EC50
Procedure: (§1) FPR2 and FPR1 Cyclic Adenosine Monophosphate (cAMP) Assays. A mixture of forskolin (5 μM final for FPR2 or 10 μM final for FPR1) and IBMX (200 μM final) were added to 384-well Proxiplates (Perkin-Elmer) pre-dotted with test compounds in DMSO (1% final) at final concentrations in the range of 0.020 nM to 100 μM. Chinese Hamster Ovary cells (CHO) overexpressing human FPR1 or human FPR2 receptors were cultured in F-12 (Ham's) medium supplemented with 10% qualified FBS, 250 μg/ml zeocin and 300 μg/ml hygromycin (Life Technologies). Reactions were initiated by adding 2,000 human FPR2 cells per well or 4,000 human FPR1 cells per well in Dulbecco's PBS (with calcium and magnesium) (Life Technologies) supplemented with 0.1% BSA (Perkin-Elmer). The reaction mixtures were incubated for 30 min at room temperature. The level of intracellular cAMP was determined using the HTRF HiRange cAMP assay reagent kit (Cisbio) according to manufacturer's instruction. Solutions of cryptate conjugated anti-cAMP and d2 flurorophore-labelled cAMP were made in a supplied lysis buffer separately. Upon completion of the reaction, the cells were lysed with equal volume of the d2-cAMP solution and anti-cAMP solution. After a 1-h room temperature incubation, time-resolved fluorescence intensity was measured using the Envision (Perkin-Elmer) at 400 nm excitation and dual emission at 590 nm and 665 nm. A calibration curve was constructed with an external cAMP standard at concentrations ranging from 1 μM to 0.1 pM by plotting the fluorescent intensity ratio from 665 nm emission to the intensity from the 590 nm emission against cAMP concentrations. The potency and activity of a compound to inhibit cAMP production was then determined by fitting to a 4-parametric logistic equation from a plot of cAMP level versus compound concentrations.

human FPR2 = human FPR2 (Homo sapiens (Human), UniProt P25090); assay: FPR2 cyclic adenosine monophosphate (cAMP) assay; format: cell-based; settings: CHO cells overexpressing human FPR2
Procedure: as §1, with “After a 1-h room temperature incubation, time-resolved fluorescence intensity was measured using the Envision (Perkin-Elmer) at 400 nm excitation and dual emission at 590 nm and 665 nm. A calibration curve was constructed with an external cAMP standard at concentrations ranging from 1 μM to 0.1 pM by plotting the fluorescent intensity ratio from 665 nm emission to the intensity from the 590 nm emission against cAMP concentrations.” left out

[1] = inhibition of forskolin (5 μM) stimulated cAMP, read-out: hFPR2 cAMP2 EC50
[2] = hFPR2 Assay, read-out: hFPR2 agonist activity EC50

human FPR1, sequence (P21462 whole entry): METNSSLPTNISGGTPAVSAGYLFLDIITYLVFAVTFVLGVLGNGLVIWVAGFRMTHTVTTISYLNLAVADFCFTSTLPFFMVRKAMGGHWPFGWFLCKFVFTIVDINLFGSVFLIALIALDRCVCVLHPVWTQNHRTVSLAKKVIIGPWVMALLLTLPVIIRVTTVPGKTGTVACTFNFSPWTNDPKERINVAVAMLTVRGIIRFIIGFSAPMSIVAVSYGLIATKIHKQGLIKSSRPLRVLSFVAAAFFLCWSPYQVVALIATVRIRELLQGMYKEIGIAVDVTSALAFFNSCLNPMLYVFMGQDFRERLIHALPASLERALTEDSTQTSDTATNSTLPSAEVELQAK
human FPR2, sequence (P25090 whole entry): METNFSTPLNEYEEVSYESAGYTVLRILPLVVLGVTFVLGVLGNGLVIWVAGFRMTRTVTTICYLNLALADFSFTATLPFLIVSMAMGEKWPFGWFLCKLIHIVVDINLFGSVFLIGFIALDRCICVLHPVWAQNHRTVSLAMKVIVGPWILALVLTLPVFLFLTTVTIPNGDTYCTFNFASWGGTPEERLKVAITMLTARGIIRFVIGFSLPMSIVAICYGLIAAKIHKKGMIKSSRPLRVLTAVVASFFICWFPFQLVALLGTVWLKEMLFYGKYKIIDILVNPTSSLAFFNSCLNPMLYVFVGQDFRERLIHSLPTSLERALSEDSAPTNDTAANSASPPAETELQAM

Row | SMILES | pEC50 (human FPR1) | pEC50 (human FPR2; [1]) | pEC50 (human FPR2; [2])
1 | O=C(Nc1ccc(C(F)(F)F)cc1)NC1CCCN(c2ccc(-c3ccccc3)cc2)C1=O (stereo not drawn) [Example 36, 1-(1-([1,1′-biphenyl]-4-yl)-2-oxopiperidin-3-yl)-3-(4-(trifluoromethyl)phenyl)urea] | 6.55 | 8.01 | 
2 | CS(=O)(=O)c1ccccc1-c1ccc(N2CCCC(NC(=O)Nc3ccc(Cl)nn3)C2=O)c(F)c1 (stereo not drawn) [Example 27, 1-(6-chloropyridazin-3-yl)-3-(1-(3-fluoro-2′-(methylsulfonyl)-[1,1′-biphenyl]-4-yl)-2-oxopiperidin-3-yl)urea] | 6.02 | 6.40 | 
3 | CC(C)(C)NS(=O)(=O)c1ccccc1-c1ccc(N2CCC[C@@H](NC(=O)Nc3ccc(Cl)cc3)C2=O)cc1 [Example 183] | 9.25 | 9.34 | 
4 | CS(=O)(=O)c1ccc(-c2ccc(N3CCCC(NC(=O)Nc4ccc(C(F)(F)F)cc4)C3=O)cc2)cc1 (stereo not drawn) [Example 49, 1-(1-(4′-(methylsulfonyl)-[1,1′-biphenyl]-4-yl)-2-oxopiperidin-3-yl)-3-(4-(trifluoromethyl)phenyl)urea] | 5.68 | 6.07 | 
5 | CS(=O)(=O)Nc1ccccc1-c1ccc(N2CCC[C@@H](NC(=O)Nc3ccc(OC(F)F)nc3)C2=O)cc1 [Example 257] | 5.46 | 7.77 | 
6 | COc1ccc(NC(=O)N[C@@H]2CCCN(c3ccc(-c4ccccc4NS(C)(=O)=O)cc3)C2=O)c(F)c1 [Example 197] | 6.66 | 9.12 | 
7 | O=C(Nc1ccc(Cl)cn1)N[C@@H]1C[C@@H](O)CN(c2ccc(-c3ccccc3F)cc2)C1=O [Example 269, 1-(5-Chloropyridin-2-yl)-3-((3R,5R)-1-(2′-fluoro-[1,1′-biphenyl]-4-yl)-5-hydroxy-2-oxopiperidin-3-yl)urea] |  |  | 7.40 to 8.30
8 | CC(N)c1cccc(-c2ccc(N3CCC[C@@H](NC(=O)Nc4ccc(Cl)cc4F)C3=O)c(F)c2F)c1 (stereo partly drawn) [Example 274, 1-((3R)-1-(3′-(1-Aminoethyl)-2,3-difluoro-[1,1′-biphenyl]-4-yl)-2-oxopiperidin-3-yl)-3-(4-chloro-2-fluorophenyl)urea] |  |  | ≥ 8.30

Continued, values first:

Row | pEC50 (human FPR1) | pEC50 (human FPR2; [1]) | pEC50 (human FPR2; [2]) | SMILES
9 | 8.08 | 9.77 |  | CS(=O)(=O)Nc1ccccc1-c1ccc(N2C[C@H](O)C[C@@H](NC(=O)Nc3ccc(Cl)cc3F)C2=O)cc1 [Example 277, N-(4′-((3R,5R)-3-(3-(4-chloro-2-fluorophenyl)ureido)-5-hydroxy-2-oxopiperidin-1-yl)-[1,1′-biphenyl]-2-yl)methanesulfonamide]
10 |  |  | 7.40 to 8.30 | CS(=O)(=O)Nc1ccccc1-c1ccc(N2CCC[C@@H](NC(=O)Nc3ccc(Cl)cc3)C2=O)cc1OC(F)(F)F [Example 300]
11 |  |  | ≥ 8.30 | N#Cc1ccccc1-c1ccc(N2CCC[C@@H](NC(=O)Nc3cnc(Cl)cn3)C2=O)c(F)c1F [Example 275, (R)-1-(5-Chloropyrazin-2-yl)-3-(1-(2′-cyano-2,3-difluoro-[1,1′-biphenyl]-4-yl)-2-oxopiperidin-3-yl)urea]
12 |  |  | ≥ 8.30 | CS(=O)(=O)Nc1cccc(-c2ccc(N3CCC[C@@H](NC(=O)Nc4ccc(Cl)cc4)C3=O)cc2)c1F [Example 278, (R)-N-(4′-(3-(3-(4-Chlorophenyl)ureido)-2-oxopiperidin-1-yl)-2-fluoro-[1,1′-biphenyl]-3-yl)methanesulfonainide]
13 |  |  | 7.40 to 8.30 | CC(N)c1cccc(-c2ccc(N3CCC[C@@H](NC(=O)Nc4ccc(C(F)(F)F)cn4)C3=O)c(F)c2F)c1 (stereo partly drawn) [Example 280, 1-((3R)-1-(3′-(1-Aminoethyl)-2,3-difluoro-[1,1′-biphenyl]-4-yl)-2-oxopiperidin-3-yl)-3-(5-(trifluoromethyl)pyridin-2-yl)urea]
14 |  |  | ≥ 8.30 | CS(=O)(=O)Nc1c(F)cccc1-c1ccc(N2CCC[C@@H](NC(=O)Nc3ccc(Cl)cc3)C2=O)cc1 [Example 279, (R)-N-(4′-(3-(3-(4-Chlorophenyl)ureido)-2-oxopiperidin-1-yl)-3-fluoro-[1,1′-biphenyl]-2-yl]methanesulfonamide]
